Results as given in the supplement of paper PMC12420376.

Assays:
KURAMOCHI = test: drug sensitivity score (DSS2) on cancer cell count; higher = more sensitive; extreme values may be limits of the assay; details: 72 h
How it was run: (§1)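 Screen quality was checked by Z', and a drug sensitivity score was derived in Breeze from logistic fits of the cancer cell counts. These counts were obtained by imaging at 10× (4 fields) after fixing and immunostaining for CK8/18 with Hoechst. Before that, ovarian cancer cells, alone or in 1:1 direct co-culture with lung or skin fibroblasts, had been treated for 72 h on 384-well plates acoustically pre-spotted with 528 approved and investigational compounds at 5 concentrations.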

OVCAR8 = test: as above; details: 72 h
How it was run: as §1

[1] = co-cultured fibroblast: BJHTERT
[2] = co-cultured fibroblast: none (monoculture)

Row | Compound | drug sensitivity score (KURAMOCHI; [1]) | drug sensitivity score (KURAMOCHI; co-cultured fibroblast: WI38) | drug sensitivity score (KURAMOCHI; [2]) | drug sensitivity score (OVCAR8; [1]) | drug sensitivity score (OVCAR8; co-cultured fibroblast: WI38) | drug sensitivity score (OVCAR8; [2])
1 | CNC(=O)c1ccc(N2C(=S)N(c3cnc(C#N)c(C(F)(F)F)c3)C(=O)C23CCC3)cc1F [Apalutamide] | 0 DSS | 0 DSS | 0 DSS | 0 DSS | 0 DSS | 0 DSS
2 | N#CC1(c2ccc(NC(=O)c3cccnc3NCc3ccncc3)cc2)CCCC1 [Apatinib] | 0 DSS | 0 DSS | 0 DSS | 0 DSS | 4.9 DSS | 2.2 DSS
3 | O=C(Nc1ccc(OC(F)(F)Cl)cc1)c1cnc(N2CC[C@@H](O)C2)c(-c2cc[nH]n2)c1 [Asciminib] | 0 DSS | 0 DSS | 0 DSS | 0 DSS | 10.5 DSS | 0 DSS
4 | CC(C)c1c(C(=O)Nc2ccccc2)c(-c2ccccc2)c(-c2ccc(F)cc2)n1CC[C@@H](O)C[C@@H](O)CC(=O)O [Atorvastatin] | 3.1 DSS | 2.1 DSS | 1.9 DSS | 4 DSS | 11.7 DSS | 6 DSS
5 | CC(=O)OC[C@H]1O[C@@H]([S-])[C@H](OC(C)=O)[C@@H](OC(C)=O)[C@@H]1OC(C)=O.CCP(CC)CC.[Au+] [Auranofin] | 9.3 DSS | 7 DSS | 8.1 DSS | 12.1 DSS | 8.8 DSS | 7.3 DSS
6 | CNC(=O)c1ccccc1Sc1ccc2c(/C=C/c3ccccn3)n[nH]c2c1 [Axitinib] | 8.7 DSS | 8.4 DSS | 7 DSS | 7.4 DSS | 5.6 DSS | 6.7 DSS
7 | Nc1ncn([C@@H]2O[C@H](CO)[C@@H](O)[C@H]2O)c(=O)n1 [Azacitidine] | 2.8 DSS | 2.6 DSS | 9.3 DSS | 3.9 DSS | 1.5 DSS | 8.9 DSS
8 | Cc1cc(-c2nc(-c3ccc(OC(F)(F)F)cc3)no2)nn1Cc1ccnc(N2CCN(C3CC3)CC2)c1 [BAY 87-2243] | 7.6 DSS | 0 DSS | 4.3 DSS | 31.1 DSS | 0 DSS | 4.8 DSS
9 | O=C1CCc2c(Oc3ccc4c(c3)[C@@H]3[C@H](O4)[C@H]3c3nc4cc(C(F)(F)F)ccc4[nH]3)ccnc2N1 [BGB-283] | 6.9 DSS | 5.3 DSS | 4.7 DSS | 3.7 DSS | 13.4 DSS | 5.2 DSS
10 | CC[C@@H]1C(=O)N(C)c2cnc(Nc3ccc(C(=O)NC4CCN(C)CC4)cc3OC)nc2N1C1CCCC1 [BI 2536] | 21.7 DSS | 25.7 DSS | 21.1 DSS | 29.5 DSS | 25.6 DSS | 29.1 DSS
11 | COc1c(C)cnc(Cn2cnc3c(Cl)nc(N)nc32)c1C [BIIB021] | 13.6 DSS | 21.1 DSS | 15.6 DSS | 21.5 DSS | 21.8 DSS | 24 DSS
12 | CC1(C)C(C(=O)Nc2ccc(S(=O)(=O)c3ccc(NC(=O)C4C(C)(C)C4(C)C)cc3)cc2)C1(C)C [BRD7116] | 0.5 DSS | 1.9 DSS | 0 DSS | 0 DSS | 0 DSS | 0 DSS
13 | O=C(Nc1cccc(Nc2ncc(Br)c(NCCc3cnc[nH]3)n2)c1)N1CCCC1 [BX-912] | 10.4 DSS | 9.6 DSS | 8.7 DSS | 9.1 DSS | 7.8 DSS | 7.3 DSS
14 | Cc1ccc(NC(=O)c2ccc(CN3CC[C@H](N(C)C)C3)c(C(F)(F)F)c2)cc1Nc1nccc(-c2cncnc2)n1 [Bafetinib] | 0.1 DSS | 0 DSS | 0 DSS | 0 DSS | 0 DSS | 0 DSS
15 | CCS(=O)(=O)N1CC(CC#N)(n2cc(-c3ncnc4[nH]ccc34)cn2)C1 [Baricitinib] | 0 DSS | 0 DSS | 0 DSS | 0 DSS | 1.1 DSS | 0 DSS
16 | O=C(/C=C/c1cccc(S(=O)(=O)Nc2ccccc2)c1)NO [Belinostat] | 15.1 DSS | 18.6 DSS | 27.5 DSS | 17.7 DSS | 18.2 DSS | 22.5 DSS
17 | N#CC(c1ccnc(OCc2ccc(CN3CCOCC3)cc2)n1)c1nc2ccccc2s1 (configuration not stated) [Bentamapimod] | 2.5 DSS | 2.3 DSS | 0.2 DSS | 0 DSS | 0 DSS | 1.4 DSS
18 | C=C(c1ccc(C(=O)O)cc1)c1cc2c(cc1C)C(C)(C)CCC2(C)C [Bexarotene] | 0.4 DSS | 0 DSS | 15.5 DSS | 0 DSS | 0 DSS | 0 DSS
19 | CC(O)(CS(=O)(=O)c1ccc(F)cc1)C(=O)Nc1ccc(C#N)c(C(F)(F)F)c1 (configuration not stated) [Bicalutamide] | 0 DSS | 0 DSS | 0 DSS | 0.1 DSS | 0 DSS | 0 DSS

Row | Compound | drug sensitivity score (KURAMOCHI; [1]) | drug sensitivity score (KURAMOCHI; co-cultured fibroblast: WI38) | drug sensitivity score (KURAMOCHI; [2]) | drug sensitivity score (OVCAR8; [1]) | drug sensitivity score (OVCAR8; co-cultured fibroblast: WI38) | drug sensitivity score (OVCAR8; [2])
20 | CCNC(=O)CCC/C=C\C[C@@H]1[C@@H](/C=C/[C@@H](O)CCc2ccccc2)[C@H](O)C[C@@H]1O [Bimatoprost] | 0 DSS | 0 DSS | 0 DSS | 0 DSS | 0 DSS | 0 DSS
21 | Cn1cnc2c(F)c(Nc3ccc(Br)cc3F)c(C(=O)NOCCO)cc21 [Binimetinib] | 2.2 DSS | 0 DSS | 0 DSS | 2.4 DSS | 0 DSS | 4 DSS
22 | Cc1sc2c(c1C)C(c1ccc(Cl)cc1)=N[C@@H](CC(=O)Nc1ccc(O)cc1)c1nnc(C)n1-2 [Birabresib] | 10.7 DSS | 13 DSS | 8.2 DSS | 19.5 DSS | 8.7 DSS | 15.6 DSS
23 | CC[C@H](NC(=O)[C@H](C)NC)C(=O)N1C[C@@H](O)C[C@H]1Cc1c(-c2[nH]c3cc(F)ccc3c2C[C@@H]2C[C@H](O)CN2C(=O)[C@H](CC)NC(=O)[C@H](C)NC)[nH]c2cc(F)ccc12 [Birinapant] | 3.3 DSS | 0 DSS | 3.7 DSS | 15.9 DSS | 12.9 DSS | 5.4 DSS
24 | Cc1c(N)nc([C@H](CC(N)=O)NC[C@H](N)C(N)=O)nc1C(=O)N[C@H](C(=O)N[C@H](C)[C@@H](O)[C@H](C)C(=O)N[C@H](C(=O)NCCc1nc(-c2nc(C(=O)NCCC[S+](C)C)cs2)cs1)[C@@H](C)O)[C@@H](OC1OC(CO)C(O)C(O)C1OC1OC(CO)C(O)C(OC(N)=O)C1O)c1cnc[nH]1 (some centres not stated) [Bleomycin] | 13.5 DSS | 15.4 DSS | 18.8 DSS | 12.1 DSS | 11.5 DSS | 14.5 DSS
25 | CC(C)C[C@H](NC(=O)[C@H](Cc1ccccc1)NC(=O)c1cnccn1)B(O)O [Bortezomib] | 11.5 DSS | 25.6 DSS | 15.7 DSS | 17.3 DSS | 27.3 DSS | 26 DSS
26 | COc1cc(Nc2c(C#N)cnc3cc(OCCCN4CCN(C)CC4)c(OC)cc23)c(Cl)cc1Cl [Bosutinib] | 12.9 DSS | 11 DSS | 12.6 DSS | 8.6 DSS | 9.1 DSS | 8.9 DSS
27 | COc1cc(N2CCC(N3CCN(C)CC3)CC2)ccc1Nc1ncc(Cl)c(Nc2ccccc2P(C)(C)=O)n1 [Brigatinib] | 0.1 DSS | 0 DSS | 0 DSS | 4.3 DSS | 7.9 DSS | 2.2 DSS
28 | Cc1cc2c(F)c(Oc3ncnn4cc(OC[C@@H](C)O)c(C)c34)ccc2[nH]1 [Brivanib] | 0 DSS | 0 DSS | 0 DSS | 0 DSS | 0 DSS | 0 DSS
29 | CCC/C=C/C=C/C(=O)O[C@H]1/C(=C/C(=O)OC)C[C@H]2C[C@H]([C@@H](C)O)OC(=O)C[C@H](O)C[C@@H]3C[C@H](OC(C)=O)C(C)(C)[C@](O)(C[C@@H]4C/C(=C/C(=O)OC)C[C@H](/C=C/C(C)(C)[C@]1(O)O2)O4)O3 [Bryostatin 1] | 0 DSS | 0 DSS | 6.4 DSS | 2.9 DSS | 0 DSS | 0 DSS
30 | Nc1cc(C(F)(F)F)c(-c2cc(N3CCOCC3)nc(N3CCOCC3)n2)cn1 [Buparlisib] | 9.1 DSS | 8 DSS | 7.9 DSS | 6.9 DSS | 3.4 DSS | 9.3 DSS
31 | Cc1nc2cccc(N)c2c(=O)n1C1CCC(=O)NC1=O (configuration not stated) [CC122] | 0 DSS | 0 DSS | 0 DSS | 0 DSS | 0 DSS | 0 DSS
32 | CCN1C(=O)CNc2ncc(-c3ccc(-c4nc[nH]n4)nc3C)nc21 [CC-115] | 6.9 DSS | 5.7 DSS | 15.1 DSS | 20.1 DSS | 4.8 DSS | 8.7 DSS
33 | CO[C@H]1CC[C@H](N2C(=O)CNc3ncc(-c4ccc(C(C)(C)O)nc4)nc32)CC1 [CC-223] | 6.8 DSS | 5.7 DSS | 4.7 DSS | 5 DSS | 1.6 DSS | 7.6 DSS
34 | COc1cc(C)[nH]c(=O)c1CNC(=O)c1c(C)n([C@H](C)C2CCOCC2)c2ccccc12 [CPI-360] | 0 DSS | 5.4 DSS | 0.7 DSS | 0 DSS | 0 DSS | 0 DSS
35 | Cc1noc2c1-c1ccccc1C(c1ccc(Cl)cc1)=N[C@H]2CC(N)=O [CPI-0610] | 0 DSS | 8.5 DSS | 5.7 DSS | 10.9 DSS | 6.5 DSS | 13.8 DSS
36 | O=C(O)CCCCC(CCSCc1ccccc1)SCc1ccccc1 (configuration not stated) [CPI-613] | 0 DSS | 0 DSS | 0 DSS | 0 DSS | 1.3 DSS | 0 DSS
37 | CN(C)c1cc2c(cc1Sc1nc3c(N)nccc3n1CCNCC(C)(C)C)OCO2 [CUDC-305] | 12 DSS | 14.9 DSS | 18.4 DSS | 16.5 DSS | 16.7 DSS | 23.2 DSS
